These results are taken from patent US11090293B2 (Ovid Therapeutics Inc., priority 2018, dated 2021).

For data set [1] the following is noted: human, in vivo, po.
For data set [2] the following is noted: human, in vivo.

Where two headings read alike, the source gives them in different places.

`CCN(CC)CCN1C(=O)CN=C(c2ccccc2F)c2cc(Cl)ccc21` [Flurazepam]: the “residual effect on Choice Reaction Time and Critical Flicker Fusion” value in data set [1] is reported as “showed significant effect”.
As to `Oc1noc2c1CCNC2` [gaboxadol, 4,5,6,7-tetrahydroisoxazolo [5,4-c]pyridine-3-ol], the CLR in data set [2] (both, iv, 10 mg) turned out to be 208 mL/min; in data set [2] (both, po, 2.5 mg), 196 mL/min; in data set [2] (both, po, 5 mg), 222 mL/min; in data set [2] (both, po, 15 mg), 234 mL/min; in data set [2] (both, po, 20 mg), 265 mL/min. In addition, the “half-life (t½)” value in data set [2] (both, po) was determined as 1.5 h. Moreover, the “AUC0-∞” value came to 171 ng·h/mL in data set [2] (both, po, 5 mg); 346 ng·h/mL in data set [2] (both, po, 10 mg); 539 ng·h/mL in data set [2] (both, po, 15 mg); 669 ng·h/mL in data set [2] (both, po, 20 mg). The “CL/F (CL for 10 mg IV)” value in data set [2] (iv, 10 mg) turned out to be 438 mL/min. Also, the “Slope (90% CI) of AUC0-∞, dose proportionality assessment” value in data set [2] (po) is 0.98 (0.95, 1.01). For the same molecule, the “residual effect on Choice Reaction Time and Critical Flicker Fusion” value in data set [1] is recorded as “did not show residual effect”.
